Test results published in PubChem BioAssay AID328 (DTP/NCI, 2004).
Where “and” joins values, the source holds several entries; their conditions need not be identical. Equal values may be shown once. Toxic doses and inconclusive results are not listed. The calls were made as follows: active = survival T/C of 150% or more; inactive = T/C below 125% in these data.

Test system: BDF1 mice, P388 leukemia ip, median survival T/C
Assay: NCI In Vivo Anticancer Drug Screen. Data for tumor model P388 Leukemia (intraperitoneal) in B6D2F1 (BDF1) mice
Conditions: endpoint: median survival time, higher = longer survival
Outline: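 Read-out is survival of treated animals expressed relative to the vehicle group, as a T/C ratio.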

[1] = dose: 100.0 mg/kg/injection, schedule: Q04DX003 (ip), vehicle: saline sonified
[2] = dose: 200.0 mg/kg/injection, schedule: Q04DX003 (ip), vehicle: saline sonified
[3] = dose: 400.0 mg/kg/injection, schedule: Q04DX003 (ip), vehicle: saline sonified
[4] = dose: 100.0 mg/kg/injection, schedule: Q01DX009 (ip), vehicle: saline with Tween-80
[5] = dose: 100.0 mg/kg/injection, schedule: Q04DX003 (ip), vehicle: saline with Tween-80
[6] = dose: 200.0 mg/kg/injection, schedule: Q01DX009 (ip), vehicle: saline with Tween-80
[7] = dose: 200.0 mg/kg/injection, schedule: Q04DX003 (ip), vehicle: saline with Tween-80
[8] = dose: 400.0 mg/kg/injection, schedule: Q01DX009 (ip), vehicle: saline with Tween-80
[9] = dose: 400.0 mg/kg/injection, schedule: Q04DX003 (ip), vehicle: saline with Tween-80
[10] = dose: 50.0 mg/kg/injection, schedule: Q01DX009 (ip), vehicle: saline with Tween-80
[11] = dose: 25.0 mg/kg/injection, schedule: Q01DX009 (ip), vehicle: saline with Tween-80

Measured: T/C

O=S(=O)(O)CCO
inactive: dose: 200.0 mg/kg/injection, schedule: Q01DX009 (ip), vehicle: saline 92 % of control | dose: 400.0 mg/kg/injection, schedule: Q01DX009 (ip), vehicle: saline 100 % of control

CC(=O)NC(CC(=O)O)C(=O)O (stereo unspecified)
inactive: dose: 25.0 mg/kg/injection, schedule: Q01DX009 (ip), vehicle: saline 95 % of control | dose: 50.0 mg/kg/injection, schedule: Q01DX009 (ip), vehicle: saline 95 % of control | dose: 100.0 mg/kg/injection, schedule: Q01DX009 (ip), vehicle: saline 105 % of control

CCC1=C(C)C(=O)C2CCCCC2C1=O (stereo unspecified)
inactive: [1] 100 % of control | [2] 100 % of control | [3] 100 % of control

COc1cc(OC)cc(-c2n[se]c(-c3cc(OC)cc(OC)c3)n2)c1
inactive: dose: 0.19 mg/kg/injection, schedule: Q01DX009 (ip), vehicle: saline with Tween-80 114 % of control | dose: 0.39 mg/kg/injection, schedule: Q01DX009 (ip), vehicle: saline with Tween-80 98 % of control | dose: 0.78 mg/kg/injection, schedule: Q01DX009 (ip), vehicle: saline with Tween-80 104 % of control | dose: 1.56 mg/kg/injection, schedule: Q01DX009 (ip), vehicle: saline with Tween-80 107 % of control

COC(=O)CCSCCC(=O)OC
inactive: [4] 100 % of control | [5] 110 % of control | [6] 100 % of control | [7] 100 % of control | [8] 100 % of control | [9] 105 % of control

O=[N+]([O-])c1ccc(C(F)(F)F)cc1
inactive: dose: 25.0 mg/kg/injection, schedule: Q01DX009 (ip), vehicle: other 109 % of control | dose: 50.0 mg/kg/injection, schedule: Q01DX009 (ip), vehicle: other 104 % of control | dose: 50.0 mg/kg/injection, schedule: Q04DX003 (ip), vehicle: other 95 % of control | dose: 100.0 mg/kg/injection, schedule: Q01DX009 (ip), vehicle: other 113 % of control | dose: 100.0 mg/kg/injection, schedule: Q04DX003 (ip), vehicle: other 100 % of control | dose: 200.0 mg/kg/injection, schedule: Q04DX003 (ip), vehicle: other 100 % of control

CC1(C)OC2C=CC3C(OC(=O)C3(C)Cl)C2O1 (stereo unspecified)
inactive: dose: 50.0 mg/kg/injection, schedule: Q04DX002 (ip), vehicle: saline with Tween-80 112 % of control and 114 % of control | dose: 100.0 mg/kg/injection, schedule: Q04DX002 (ip), vehicle: saline with Tween-80 99 % of control and 103 % of control and 104 % of control | dose: 200.0 mg/kg/injection, schedule: Q04DX002 (ip), vehicle: saline with Tween-80 103 % of control and 104 % of control | dose: 400.0 mg/kg/injection, schedule: Q04DX002 (ip), vehicle: saline with Tween-80 99 % of control and 101 % of control (2×)

O=C1Oc2ccccc2C(=O)/C1=C1/C=C(c2ccccc2)SS1
inactive: [10] 90 % of control | [4] 88 % of control | [6] 90 % of control

O=C(CC(=O)Oc1ccc(Cl)cc1Cl)Oc1ccc(Cl)cc1Cl
inactive: [4] 100 % of control | [6] 100 % of control | [8] 100 % of control

Cc1noc(N)c1N
inactive: dose: 100.0 mg/kg/injection, schedule: Q01DX009 (ip), vehicle: water 110 % of control | dose: 100.0 mg/kg/injection, schedule: Q04DX003 (ip), vehicle: water 109 % of control | dose: 200.0 mg/kg/injection, schedule: Q01DX009 (ip), vehicle: water 110 % of control and 117 % of control | dose: 200.0 mg/kg/injection, schedule: Q04DX003 (ip), vehicle: water 100 % of control | dose: 400.0 mg/kg/injection, schedule: Q01DX009 (ip), vehicle: water 106 % of control | dose: 400.0 mg/kg/injection, schedule: Q04DX003 (ip), vehicle: water 100 % of control | dose: 600.0 mg/kg/injection, schedule: Q01DX009 (ip), vehicle: water 122 % of control

CCn1c2ccccc2c2cc(NC(=O)Nc3ccc([N+](=O)[O-])cc3C)ccc21
inactive: [10] 100 % of control | [4] 91 % of control | [6] 91 % of control

O=[N+]([O-])c1ccc(/C=[N+](\[O-])CCO)cc1
inactive: dose: 6.25 mg/kg/injection, schedule: Q01DX009 (ip), vehicle: saline with Tween-80 101 % of control | dose: 12.5 mg/kg/injection, schedule: Q01DX009 (ip), vehicle: saline with Tween-80 101 % of control | [11] 100 % of control

O=C(CCCCC(=O)N/N=C\c1ccccn1)N/N=C\c1ccccn1
inactive: dose: 100.0 mg/kg/injection, schedule: Q04DX003 (ip), vehicle: saline 104 % of control | dose: 200.0 mg/kg/injection, schedule: Q04DX003 (ip), vehicle: saline 100 % of control | dose: 400.0 mg/kg/injection, schedule: Q04DX003 (ip), vehicle: saline 109 % of control

C=C(C)C(=O)NCC(=O)NC(CC(C)C)C(=O)Oc1ccc([N+](=O)[O-])cc1 (stereo unspecified)
inactive: [11] 97 % of control | [10] 97 % of control | [4] 90 % of control

C[C@@H]1C[C@H]2[C@@H]3CCC4=CC(=O)C=C[C@]4(C)[C@@]3(F)[C@@H](O)C[C@]2(C)[C@@]1(O)C(=O)CO
inactive: dose: 6.25 mg/kg/injection, schedule: Q04DX003 (ip), vehicle: saline 104 % of control | dose: 12.5 mg/kg/injection, schedule: Q04DX003 (ip), vehicle: saline 109 % of control | dose: 16.5 mg/kg/injection, schedule: Q04DX003 (ip), vehicle: saline 112 % of control and 122 % of control | dose: 25.0 mg/kg/injection, schedule: Q04DX003 (ip), vehicle: saline sonified 110 % of control | dose: 25.0 mg/kg/injection, schedule: Q04DX003 (ip), vehicle: saline 100 % of control and 113 % of control | dose: 37.5 mg/kg/injection, schedule: Q04DX003 (ip), vehicle: saline 109 % of control and 112 % of control | dose: 50.0 mg/kg/injection, schedule: Q04DX003 (ip), vehicle: saline sonified 110 % of control | dose: 50.0 mg/kg/injection, schedule: Q04DX003 (ip), vehicle: saline 90 % of control | dose: 55.0 mg/kg/injection, schedule: Q04DX003 (ip), vehicle: saline 110 % of control | dose: 85.0 mg/kg/injection, schedule: Q04DX003 (ip), vehicle: saline 119 % of control | [1] 100 % of control

O=c1cc2cccccc-2cc1O
inactive: dose: 10.0 mg/kg/injection, schedule: Q01DX009 (ip), vehicle: saline with Tween-80 104 % of control | dose: 20.0 mg/kg/injection, schedule: Q01DX009 (ip), vehicle: saline with Tween-80 113 % of control | dose: 40.0 mg/kg/injection, schedule: Q01DX009 (ip), vehicle: saline with Tween-80 113 % of control

CSc1ccc(NC(=O)C(O)C(O)C(O)C(O)CO)cc1 (stereo unspecified)
inactive: dose: 75.0 mg/kg/injection, schedule: Q01DX009 (ip), vehicle: saline with Tween-80 100 % of control | [1] 104 % of control | dose: 150.0 mg/kg/injection, schedule: Q01DX009 (ip), vehicle: saline with Tween-80 100 % of control | [2] 104 % of control | dose: 300.0 mg/kg/injection, schedule: Q01DX009 (ip), vehicle: saline with Tween-80 100 % of control | [3] 104 % of control

Cc1ccc(NC(=O)Nc2ccccc2C(F)(F)F)cc1NC(=O)Nc1ccccc1C(F)(F)F
inactive: [5] 100 % of control | [7] 100 % of control | [9] 104 % of control
